Experimental data from patent publication EP4810052A2, “HCRHR2 SELECTIVE POLYPEPTIDES” (Gubra A/S, priority 2023, dated 2026).
Where two headings read alike, the source gives them in different places. Starred links: 1 amine or outer side, 2 acyl side, 3 side chain; linkers in the order of their positions; H or OH if unused. Non-standard residues stand in square brackets, D forms with d. Residues, ends and D or L forms follow the SMILES beside them. Groups on a side chain read outwards from the residue. *: point of attachment. C20 diacid = O=C(O)CCCCCCCCCCCCCCCCCCC(=O)*; γGlu = O=C(O)[C@H](CCC(=O)[*:2])N[*:1]; NMeI = CC[C@H](C)[C@H](NC)C(=O)O; Nle = CCCC[C@H](N)C(=O)O; AEEA = NCCOCCOCC(=O)O; Aib = CC(C)(N)C(=O)O

How the values were obtained:
hCRHR2 = target: T1, hCRHR2 (Homo sapiens, UniProt Q13324); assay: HTRF cAMP assay, determination of hCRHR2 potency (peptide libraries 5 conc., purified peptides 11 conc.); type: cell-based
T1 sequence (Q13324 1-411): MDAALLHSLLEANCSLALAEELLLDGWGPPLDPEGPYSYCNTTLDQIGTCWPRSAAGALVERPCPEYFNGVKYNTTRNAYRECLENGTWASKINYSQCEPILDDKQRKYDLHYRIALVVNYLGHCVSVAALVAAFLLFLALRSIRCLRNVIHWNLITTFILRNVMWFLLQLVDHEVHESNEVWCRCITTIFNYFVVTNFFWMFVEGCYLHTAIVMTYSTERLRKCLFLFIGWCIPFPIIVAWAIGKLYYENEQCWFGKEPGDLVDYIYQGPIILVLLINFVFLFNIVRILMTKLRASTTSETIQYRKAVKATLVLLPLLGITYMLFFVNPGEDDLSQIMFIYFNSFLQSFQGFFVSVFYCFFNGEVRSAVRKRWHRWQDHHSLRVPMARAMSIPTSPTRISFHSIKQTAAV
In short: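 Cells: CHO-K1/hCRHR2 stable clone, suspension, freshly thawed. Readout: competitive TR-FRET, anti-cAMP cryptate vs cAMP-d2. Analysis: sigmoid variable-slope nonlinear regression → EC50.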

hCRHR1 = target: T2, hCRHR1 (Homo sapiens, UniProt P34998); assay: HTRF cAMP assay, determination of hCRHR1 potency (peptide libraries 5 conc., purified peptides 11 conc.); type: cell-based
T2 sequence (P34998 24-415): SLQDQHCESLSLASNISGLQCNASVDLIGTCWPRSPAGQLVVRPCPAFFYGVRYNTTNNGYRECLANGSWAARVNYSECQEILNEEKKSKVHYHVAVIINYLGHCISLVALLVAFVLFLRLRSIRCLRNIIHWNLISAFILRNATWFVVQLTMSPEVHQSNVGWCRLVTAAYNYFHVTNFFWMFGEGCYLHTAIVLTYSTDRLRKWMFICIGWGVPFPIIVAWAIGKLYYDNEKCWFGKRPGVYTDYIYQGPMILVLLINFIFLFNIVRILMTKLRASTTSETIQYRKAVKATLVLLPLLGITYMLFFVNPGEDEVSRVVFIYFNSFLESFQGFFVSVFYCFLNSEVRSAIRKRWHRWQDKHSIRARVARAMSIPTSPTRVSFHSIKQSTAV
In short: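 Cellular cAMP was read by time-resolved FRET between d2-labelled cAMP and cryptate anti-cAMP antibody. The cells were freshly thawed suspension CHO-K1 cells stably expressing human CRHR1.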

[1] = Table 3, matched molecular pairs X^38 L vs Nle, peptide library of Example 4, read-out: hCRHR2 pEC50 (converted)
[2] = Table 3, matched molecular pairs X^38 L vs Nle, peptide library of Example 4, read-out: hCRHR1 pEC50 (converted)
[3] = library peptides, matched molecular pairs L vs Nle in position X^38, read-out: Potency hCRHR2 pEC50 (converted)
[4] = library peptides, matched molecular pairs L vs Nle in position X^38, read-out: Potency hCRHR1 pEC50 (converted)

| SMILES | EC50 (hCRHR2; [1]) [nM] | EC50 (hCRHR1; [2]) [nM] | EC50 (hCRHR2; [3]) [nM] | EC50 (hCRHR1; [4]) [nM] | also measured |
| --- | --- | --- | --- | --- | --- |
| CC[C@H](C)[C@H](N)C(=O)N[C@H](C(=O)N[C@@H](CC(C)C)C(=O)N[C@@H](CO)C(=O)N[C@@H](CC(C)C)C(=O)N[C@@H](CC(=O)O)C(=O)N[C@H](C(=O)N1CCC[C@H]1C(=O)N[C@H](C(=O)NCC(=O)N[C@@H](CC(C)C)C(=O)N[C@@H](CC(C)C)C(=O)N[C@@H](CCC(N)=O)C(=O)N[C@H](C(=O)N[C@@H](CC(C)C)C(=O)N[C@@H](CC(C)C)C(=O)N[C@@H](CCC(=O)O)C(=O)N[C@@H](CCC(N)=O)C(=O)N[C@@H](C)C(=O)N[C@@H](CCCNC(=N)N)C(=O)N[C@@H](C)C(=O)N[C@@H](CCC(=O)O)C(=O)N[C@@H](C)C(=O)N[C@@H](C)C(=O)N[C@@H](CCCNC(=N)N)C(=O)N[C@@H](CCC(=O)O)C(=O)N[C@@H](CCC(N)=O)C(=O)N[C@@H](C)C(=O)N[C@@H](CCCCNC(=O)COCCOCCNC(=O)COCCOCCNC(=O)CC[C@H](NC(=O)CC[C@H](NC(=O)CCCCCCCCCCCCCCCCCCC(=O)O)C(=O)O)C(=O)O)C(=O)N[C@H](C(=O)N[C@@H](CC(N)=O)C(=O)N[C@@H](C)C(=O)N[C@@H](CCC(=O)O)C(=O)N[C@H](C(=O)N[C@@H](CC(C)C)C(=O)N[C@@H](C)C(=O)N[C@@H](CCC(=O)O)C(=O)N[C@H](C(N)=O)[C@@H](C)CC)[C@@H](C)CC)[C@@H](C)O)[C@@H](C)CC)[C@@H](C)CC)C(C)C)C(C)C [SEQ ID NO: 23] (H-IVLSLDVPIGLLQILLEQARAEAAREQAK([AEEA-AEEA-γGlu-γGlu-C20 diacid])TNAEILAEI-NH2) | 0.501 | 39800 | – | – | – |
| CCCC[C@H](NC(=O)[C@@H](NC(=O)[C@H](CCC(=O)O)NC(=O)C(C)(C)NC(=O)[C@H](CC(N)=O)NC(=O)[C@@H](NC(=O)[C@H](CCCCNC(=O)COCCOCCNC(=O)COCCOCCNC(=O)CC[C@H](NC(=O)CC[C@H](NC(=O)CCCCCCCCCCCCCCCCCCC(=O)O)C(=O)O)C(=O)O)NC(=O)[C@H](C)NC(=O)[C@H](CCC(N)=O)NC(=O)[C@H](CCC(=O)O)NC(=O)[C@H](CCCNC(=N)N)NC(=O)[C@H](C)NC(=O)[C@H](C)NC(=O)[C@H](CCCNC(=N)N)NC(=O)[C@H](C)NC(=O)[C@H](CCCNC(=N)N)NC(=O)[C@H](C)NC(=O)[C@H](CCC(N)=O)NC(=O)[C@H](CCCCN)NC(=O)[C@H](CC(C)C)NC(=O)[C@H](CC(C)C)NC(=O)[C@@H](NC(=O)[C@H](CCC(N)=O)NC(=O)[C@H](CC(C)C)NC(=O)[C@H](CC(C)C)NC(=O)CNC(=O)[C@@H](NC(=O)[C@@H]1CCCN1C(=O)[C@@H](NC(=O)[C@H](CC(=O)O)NC(=O)[C@H](CC(C)C)NC(=O)[C@H](CO)NC(=O)[C@H](CC(C)C)NC(=O)[C@@H](NC(=O)[C@@H](NC)[C@@H](C)CC)C(C)C)C(C)C)[C@@H](C)CC)[C@@H](C)CC)[C@@H](C)O)[C@@H](C)CC)C(=O)N[C@@H](C)C(=O)N[C@@H](CCC(=O)O)C(=O)N[C@H](C(N)=O)C(C)C [compound 230] (H-[NMeI]VLSLDVPIGLLQILLKQARARAAREQAK([AEEA-AEEA-γGlu-γGlu-C20 diacid])TN[Aib]EI[Nle]AEV-NH2) | – | – | – | – | EC50 (hCRHR2; Table 4, library peptides having X^38 = Nle, read-out: hCRHR2 pEC50 (converted)): 0.0501 nM; EC50 (hCRHR1; Table 4, library peptides having X^38 = Nle, read-out: hCRHR1 pEC50 (converted)): 31600 nM |
| CC[C@H](C)[C@H](N)C(=O)N[C@H](C(=O)N[C@@H](CC(C)C)C(=O)N[C@@H](CO)C(=O)N[C@@H](CC(C)C)C(=O)N[C@@H](CC(=O)O)C(=O)N[C@H](C(=O)N1CCC[C@H]1C(=O)N[C@H](C(=O)NCC(=O)N[C@@H](CC(C)C)C(=O)N[C@@H](CC(C)C)C(=O)N[C@@H](CCC(N)=O)C(=O)N[C@H](C(=O)N[C@@H](CC(C)C)C(=O)N[C@@H](CC(C)C)C(=O)N[C@@H](CCC(=O)O)C(=O)N[C@@H](CCC(N)=O)C(=O)N[C@@H](C)C(=O)N[C@@H](CCCNC(=N)N)C(=O)N[C@@H](C)C(=O)N[C@@H](CCCNC(=N)N)C(=O)N[C@@H](C)C(=O)N[C@@H](C)C(=O)N[C@@H](CCCNC(=N)N)C(=O)N[C@@H](CCC(=O)O)C(=O)N[C@@H](CCC(=O)O)C(=O)N[C@@H](C)C(=O)N[C@@H](CCCCNC(=O)COCCOCCNC(=O)COCCOCCNC(=O)CC[C@H](NC(=O)CC[C@H](NC(=O)CCCCCCCCCCCCCCCCCCC(=O)O)C(=O)O)C(=O)O)C(=O)N[C@H](C(=O)N[C@@H](CC(N)=O)C(=O)N[C@@H](C)C(=O)N[C@@H](CCC(=O)O)C(=O)N[C@H](C(=O)N[C@@H](CC(C)C)C(=O)N[C@@H](C)C(=O)N[C@@H](CCC(=O)O)C(=O)N[C@H](C(N)=O)[C@@H](C)CC)[C@@H](C)CC)[C@@H](C)O)[C@@H](C)CC)[C@@H](C)CC)C(C)C)C(C)C [compound 74] (H-IVLSLDVPIGLLQILLEQARARAAREEAK([AEEA-AEEA-γGlu-γGlu-C20 diacid])TNAEILAEI-NH2) | – | – | 2 | 158000 | – |

More lines, main results first:

| EC50 (hCRHR2; [1]) [nM] | EC50 (hCRHR1; [2]) [nM] | EC50 (hCRHR2; [3]) [nM] | EC50 (hCRHR1; [4]) [nM] | SMILES | also measured |
| --- | --- | --- | --- | --- | --- |
| – | – | 1.26 | 158000 | CC[C@H](C)[C@H](N)C(=O)N[C@H](C(=O)N[C@@H](CC(C)C)C(=O)N[C@@H](CO)C(=O)N[C@@H](CC(C)C)C(=O)N[C@@H](CC(=O)O)C(=O)N[C@H](C(=O)N1CCC[C@H]1C(=O)N[C@H](C(=O)NCC(=O)N[C@@H](CC(C)C)C(=O)N[C@@H](CC(C)C)C(=O)N[C@@H](CCC(N)=O)C(=O)N[C@H](C(=O)N[C@@H](CC(C)C)C(=O)N[C@@H](CC(C)C)C(=O)N[C@@H](CCC(=O)O)C(=O)N[C@@H](CCC(N)=O)C(=O)N[C@@H](C)C(=O)N[C@@H](CCCNC(=N)N)C(=O)N[C@@H](C)C(=O)N[C@@H](CCCNC(=N)N)C(=O)N[C@@H](CO)C(=O)N[C@@H](CCC(N)=O)C(=O)N[C@@H](CCCNC(=N)N)C(=O)N[C@@H](CCC(=O)O)C(=O)N[C@@H](CCC(=O)O)C(=O)N[C@@H](C)C(=O)N[C@@H](CCCCNC(=O)COCCOCCNC(=O)COCCOCCNC(=O)CC[C@H](NC(=O)CC[C@H](NC(=O)CCCCCCCCCCCCCCCCCCC(=O)O)C(=O)O)C(=O)O)C(=O)N[C@H](C(=O)N[C@@H](CC(N)=O)C(=O)N[C@@H](C)C(=O)N[C@@H](CCC(=O)O)C(=O)N[C@H](C(=O)N[C@@H](CC(C)C)C(=O)N[C@@H](C)C(=O)N[C@@H](CCC(=O)O)C(=O)N[C@H](C(N)=O)C(C)C)[C@@H](C)CC)[C@@H](C)O)[C@@H](C)CC)[C@@H](C)CC)C(C)C)C(C)C [compound 70] (H-IVLSLDVPIGLLQILLEQARARSQREEAK([AEEA-AEEA-γGlu-γGlu-C20 diacid])TNAEILAEV-NH2) | – |
| 0.158 | 5010 | – | – | CCCC[C@H](NC(=O)[C@@H](NC(=O)[C@H](CCC(=O)O)NC(=O)[C@H](C)NC(=O)[C@H](CC(N)=O)NC(=O)[C@@H](NC(=O)[C@H](CCCCNC(=O)COCCOCCNC(=O)COCCOCCNC(=O)CC[C@H](NC(=O)CC[C@H](NC(=O)CCCCCCCCCCCCCCCCCCC(=O)O)C(=O)O)C(=O)O)NC(=O)[C@H](C)NC(=O)[C@H](CCCNC(=N)N)NC(=O)[C@H](CCC(=O)O)NC(=O)[C@H](CCCNC(=N)N)NC(=O)[C@H](C)NC(=O)[C@H](CO)NC(=O)[C@H](CCC(=O)O)NC(=O)[C@H](C)NC(=O)[C@H](CCCNC(=N)N)NC(=O)[C@H](C)NC(=O)[C@H](CCC(N)=O)NC(=O)[C@H](CCC(=O)O)NC(=O)[C@H](CC(C)C)NC(=O)[C@H](CC(C)C)NC(=O)[C@@H](NC(=O)[C@H](CCC(N)=O)NC(=O)[C@H](CC(C)C)NC(=O)[C@H](CC(C)C)NC(=O)CNC(=O)[C@@H](NC(=O)[C@@H]1CCCN1C(=O)[C@@H](NC(=O)[C@H](CC(=O)O)NC(=O)[C@H](CC(C)C)NC(=O)[C@H](CO)NC(=O)[C@H](CC(C)C)NC(=O)[C@@H](NC(=O)[C@@H](N)[C@@H](C)CC)C(C)C)C(C)C)[C@@H](C)CC)[C@@H](C)CC)[C@@H](C)O)[C@@H](C)CC)C(=O)N[C@@H](C)C(=O)N[C@@H](CCC(=O)O)C(=O)N[C@H](C(N)=O)[C@@H](C)CC [SEQ ID NO: 22] (H-IVLSLDVPIGLLQILLEQARAESARERAK([AEEA-AEEA-γGlu-γGlu-C20 diacid])TNAEI[Nle]AEI-NH2) | – |
